Experiments:
[1] = target: T1, pre-formed fibrils of Aβ42 (Homo sapiens, UniProt P05067); test: CD spectroscopy of pre-formed Aβ42 fibrils with the tested molecules; settings: Aβ42 (10 µM) : molecule 1:5
T1 construct: purchased rPeptide (USA)
Protocol: (§1) For efficient treatment of proteinopathies it may be advantageous to disassemble amyloid aggregates/fibrils which are usually already present at the time of diagnosis[75]–[77]. […] Then, various doses of the hybrid molecules were added to the pre-formed fibrils and the mixtures were incubated for additional 10 h. The process of disaggregation was monitored by ThT-binding assay, CD spectroscopy, TEM and Congo red staining (Fig. 5).
(§2) The blank was subtracted from the acquired CD spectra. For the CD study in the presence of the tryptophan-galacosylamine molecules, the spectra of hybrid molecules were also recorded separately and subtracted from the respective sample spectra. The normalized data were plotted using Origin pro 2015 software.

Aβ42 = target: T2, Aβ42 (Homo sapiens, UniProt P05067); test: CD spectroscopy of Aβ42 aggregated with the tested molecules; settings: 5-fold molar excess of compound
T2 construct: purchased rPeptide (USA)
T2 sequence (P05067 672-713 limits assumed): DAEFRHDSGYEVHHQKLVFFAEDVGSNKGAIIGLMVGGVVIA
Protocol: as §2

[2] = target: T1, pre-formed fibrils of Aβ42; test: ThT-binding assay, disaggregation of pre-formed Aβ42 fibrils; type: biochemical; settings: for % amyloid of Aβ42: disaggregation of pre-formed Aβ42 (10 µM) fibrils
Protocol: as §1
The experiment was performed according to the previous report. […] Kinetics fluorescence data were collected at 37 °C in triplicate using Infinite M200 microplate reader (Tecan, Switzerland), with measurements acquired at 15 min intervals. Excitation and emission wavelengths were set at 440 nm and 485 nm, respectively.

T1 sequence (P05067 672-713 limits assumed): as above

## NC(Cc1c[nH]c2ccccc12)C(=O)NC(Cc1c[nH]c2ccccc12)C(=O)O (stereo not drawn) [WW]
[1]; wave length 190.00
  Normalized CD spectra: -73553.54
[1]; wave length 190.50
  Normalized CD spectra: -15766.44
[1]; wave length 191.00
  Normalized CD spectra: 35958.05
[1]; wave length 191.50
  Normalized CD spectra: 81619.94
[1]; wave length 192.00
  Normalized CD spectra: 121219.23
[1]; wave length 192.50
  Normalized CD spectra: 154755.92
[1]; wave length 193.00
  Normalized CD spectra: 182230.00
[1]; wave length 193.50
  Normalized CD spectra: 203641.48
[1]; wave length 194.00
  Normalized CD spectra: 218990.36
[1]; wave length 194.50
  Normalized CD spectra: 228276.63
[1]; wave length 195.00
  Normalized CD spectra: 231500.30
[1]; wave length 195.50
  Normalized CD spectra: 225800.71
[1]; wave length 196.00
  Normalized CD spectra: 212602.53
[1]; wave length 196.50
  Normalized CD spectra: 192673.83
[1]; wave length 197.00
  Normalized CD spectra: 167389.33
[1]; wave length 197.50
  Normalized CD spectra: 138095.62
[1]; wave length 198.00
  Normalized CD spectra: 105620.63
[1]; wave length 198.50
  Normalized CD spectra: 71268.15
[1]; wave length 199.00
  Normalized CD spectra: 34612.79
[1]; wave length 199.50
  Normalized CD spectra: -3059.42
[1]; wave length 200.00
  Normalized CD spectra: -41012.41
[1]; wave length 200.50
  Normalized CD spectra: -77900.86
[1]; wave length 201.00
  Normalized CD spectra: -113482.60
[1]; wave length 201.50
  Normalized CD spectra: -149046.90
[1]; wave length 202.00
  Normalized CD spectra: -184972.48
[1]; wave length 202.50
  Normalized CD spectra: -219485.50
[1]; wave length 203.00
  Normalized CD spectra: -252839.40
[1]; wave length 203.50
  Normalized CD spectra: -284772.39
[1]; wave length 204.00
  Normalized CD spectra: -314917.56
[1]; wave length 204.50
  Normalized CD spectra: -342821.04
[1]; wave length 205.00
  Normalized CD spectra: -369216.74
[1]; wave length 205.50
  Normalized CD spectra: -393550.37
[1]; wave length 206.00
  Normalized CD spectra: -417348.83
[1]; wave length 206.50
  Normalized CD spectra: -438915.06
[1]; wave length 207.00
  Normalized CD spectra: -457557.09
[1]; wave length 207.50
  Normalized CD spectra: -473195.60
[1]; wave length 208.00
  Normalized CD spectra: -486009.60
[1]; wave length 208.50
  Normalized CD spectra: -496658.21
[1]; wave length 209.00
  Normalized CD spectra: -506978.42
[1]; wave length 209.50
  Normalized CD spectra: -515749.12
[1]; wave length 210.00
  Normalized CD spectra: -522740.26
[1]; wave length 210.50
  Normalized CD spectra: -528398.60
[1]; wave length 211.00
  Normalized CD spectra: -534227.02
[1]; wave length 211.50
  Normalized CD spectra: -539337.45
[1]; wave length 212.00
  Normalized CD spectra: -544717.07
[1]; wave length 212.50
  Normalized CD spectra: -549064.94
[1]; wave length 213.00
  Normalized CD spectra: -552893.06
[1]; wave length 232.00
  Normalized CD spectra: -158822.48
[1]; wave length 232.50
  Normalized CD spectra: -145896.86
[1]; wave length 233.00
  Normalized CD spectra: -133288.90
[1]; wave length 233.50
  Normalized CD spectra: -121276.73
[1]; wave length 234.00
  Normalized CD spectra: -108420.01
[1]; wave length 234.50
  Normalized CD spectra: -94402.20
[1]; wave length 235.00
  Normalized CD spectra: -80851.94
[1]; wave length 235.50
  Normalized CD spectra: -67553.80
[1]; wave length 236.00
  Normalized CD spectra: -53046.10
[1]; wave length 236.50
  Normalized CD spectra: -38359.94
[1]; wave length 237.00
  Normalized CD spectra: -24169.94
[1]; wave length 237.50
  Normalized CD spectra: -9295.33
[1]; wave length 238.00
  Normalized CD spectra: 4979.26
[1]; wave length 238.50
  Normalized CD spectra: 18805.26
[1]; wave length 239.00
  Normalized CD spectra: 32522.94
[1]; wave length 239.50
  Normalized CD spectra: 44912.46
[1]; wave length 240.00
  Normalized CD spectra: 56635.42
[1]; wave length 240.50
  Normalized CD spectra: 67013.51
[1]; wave length 241.00
  Normalized CD spectra: 74841.22
[1]; wave length 241.50
  Normalized CD spectra: 81258.78
[1]; wave length 242.00
  Normalized CD spectra: 86276.81
[1]; wave length 242.50
  Normalized CD spectra: 90384.02
[1]; wave length 243.00
  Normalized CD spectra: 92798.03
[1]; wave length 243.50
  Normalized CD spectra: 93594.35
[1]; wave length 244.00
  Normalized CD spectra: 93999.17
[1]; wave length 244.50
  Normalized CD spectra: 92992.13
[1]; wave length 245.00
  Normalized CD spectra: 90422.16
[1]; wave length 245.50
  Normalized CD spectra: 86663.60
[1]; wave length 246.00
  Normalized CD spectra: 82929.71
[1]; wave length 246.50
  Normalized CD spectra: 77838.15
[1]; wave length 247.00
  Normalized CD spectra: 72115.03
[1]; wave length 247.50
  Normalized CD spectra: 67454.01
[1]; wave length 248.00
  Normalized CD spectra: 62170.09
[1]; wave length 248.50
  Normalized CD spectra: 58159.55
[1]; wave length 249.00
  Normalized CD spectra: 54507.86
[1]; wave length 249.50
  Normalized CD spectra: 50774.14
[1]; wave length 250.00
  Normalized CD spectra: 48265.73
[1]; wave length 250.50
  Normalized CD spectra: 46578.32
[1]; wave length 251.00
  Normalized CD spectra: 45531.49
[1]; wave length 251.50
  Normalized CD spectra: 45968.11
[1]; wave length 252.00
  Normalized CD spectra: 46977.38
[1]; wave length 252.50
  Normalized CD spectra: 48862.26
[1]; wave length 253.00
  Normalized CD spectra: 50826.53
[1]; wave length 253.50
  Normalized CD spectra: 52698.23
[1]; wave length 254.00
  Normalized CD spectra: 54591.66
[1]; wave length 254.50
  Normalized CD spectra: 55574.45
[1]; wave length 255.00
  Normalized CD spectra: 55730.02
[1]; wave length 255.50
  Normalized CD spectra: 53034.53
[1]; wave length 256.00
  Normalized CD spectra: 49400.95
[1]; wave length 256.50
  Normalized CD spectra: 44829.26
[1]; wave length 257.00
  Normalized CD spectra: 39319.47
[1]; wave length 257.50
  Normalized CD spectra: 32871.59
[1]; wave length 258.00
  Normalized CD spectra: 25485.60
Aβ42
  effect on Aβ42 secondary structure (CD), in words: No significant variation
[2]; compound added to pre-formed fibrils
  increase of ThT fluorescence intensity of pre-formed Aβ42 fibrils: ~ 20%
[2]; molar ratio Aβ42:tested molecule (1:1)
  % amyloid of Aβ42: 105.449%
[2]; molar ratio Aβ42:tested molecule (1:5)
  % amyloid of Aβ42: 118.857%
[2]; molar ratio Aβ42:tested molecule (5:1)
  % amyloid of Aβ42: 102.097%

From PMC7468108 (Communications Biology, 2020)
